Literature values in patent US20040115261A1, “Controlled delivery of tetracycline compounds and tetracycline derivatives” (priority 2003, published 2004).

Details: based on steady-state pharmacokinetics, minimum antibiotic serum concentration = lowest concentration known to exert a significant antibiotic effect

## CN(C)[C@@H]1C(O)=C(C(N)=O)C(=O)[C@@]2(O)C(O)=C3C(=O)c4c(O)cccc4[C@@](C)(O)[C@H]3C[C@@H]12 [tetracycline]
  plasma antibiotic threshold level: 0.5 µg/mL
